Test results: patent US12048317B2, “Astaxanthin-containing condiment and a preparation method therefor” (South China University of Technology, priority 2018, dated 2024)

Experiments:
Format in all cases: physicochemical
[1] = Concentration of astaxanthin in the aqueous supernatant after glass-bead wall breaking of P. rhodozyma (spectrophotometer); conditions: water, 1 mm glass beads 500 g/L, 22° C., 150 rpm
Method: Adding P. rhodozyma to 20 mL of water to obtain yeast suspensions with concentrations of 20 g/L, 50 g/L and 100 g/L (dry weight), adding glass beads with a particle size of 1 mm to the yeast suspensions to make the content of the glass beads in the yeast suspensions 500 g/L, and then shaking to break walls in a shaker at 22° C. at a stirring speed of 150 rpm for 48 h. After breaking the wall, centrifuging at 10000 rpm for 10 min, and then collecting the precipitate and supernatant. Extracting astaxanthin in the supernatant with acetone and back-extracting it with petroleum ether, extracting the astaxanthin in the precipitate with acetone, and then using a spectrophotometer to detect the content of astaxanthin in the supernatant and precipitate. Using the amount of astaxanthin extracted by the acid-heat treatment method as a control, i.e., regarding the amount of astaxanthin extracted by the acid-heat treatment method by default as the total amount of astaxanthin for the calculation of the astaxanthin extraction rate.
Adding P. rhodozyma to 20 mL of water to obtain a yeast suspension with a concentration of 20 g/L (dry weight), adding glass beads with a particle size of 1 mm to the yeast suspension to make the content of the glass beads in the yeast suspension 500 g/L, and then shaking to break walls in a shaker at 22° C. at a stirring speed of 150 rpm for 6 h, 24 h and 48 h, respectively. After breaking the wall, centrifuging at 10000 rpm for 10 min, and then collecting the precipitate and supernatant. Extracting astaxanthin in the supernatant with acetone and back-extracting it with petroleum ether, extracting the astaxanthin in the precipitate with acetone, and then using a spectrophotometer to detect the content of astaxanthin in the supernatant and precipitate. Using the amount of astaxanthin extracted by the acid-heat treatment method as a control, i.e., regarding the amount of astaxanthin extracted by the acid-heat treatment method by default as the total amount of astaxanthin for the calculation of the astaxanthin extraction rate.

[2] = Drug-loading rate (amount of pigment contained in each gram of the microcapsule powder); conditions: Example 4 microcapsules
Method: (§1) This example selected the following optimal proportion: Supernatant (V, mL):gelatin (W, g):porous starch (W, g)=400:15:6 (core material (W, g):wall material (W, g)=3.95:21); the microencapsulation temperature was 40° C., and the microencapsulation time was 2 h. The encapsulation rate was calculated by detecting the total amount of pigment in the microcapsule powder and the amount of pigment on the surface (refer to Gomez-Estaca J. Food Hydrocolloids, 2016, 61:155-162). The amount of pigment on the surface was obtained by directly adding acetone for extraction. The total amount of pigment in the microcapsule powder was obtained as follows: dissolving the microcapsule powder in distilled water, shaking and then adding acetone thereto, mixing uniformly and then centrifuging, using petroleum ether to back-extract the pigment, and taking the upper layer of pigment-petroleum ether to measure the absorbance A with a spectrophotometer; if the pigment in the lower layer of acetone was not extracted completely, petroleum ether was added repeatedly until the organic solvent in the lower layer was colorless. Drug-loading rate refers to the amount of pigment contained in each gram of the microcapsule powder.

[3] = Encapsulation rate of the microcapsule powder (total pigment vs pigment on the surface); conditions: Example 4 microcapsules
Method: as §1

concentration of astaxanthin in the supernatant after the wall breaking ([1]; P. rhodozyma 20 g/L, 6 h): 93.72 µg/mL
concentration of astaxanthin in the supernatant after the wall breaking ([1]; P. rhodozyma 20 g/L, 24 h): 306.43 µg/mL
concentration of astaxanthin in the supernatant after the wall breaking ([1]; P. rhodozyma 20 g/L, 48 h): 459.57 µg/mL
concentration of astaxanthin in the supernatant after the wall breaking ([1]; P. rhodozyma 50 g/L, 48 h): 843.06 µg/mL
concentration of astaxanthin in the supernatant after the wall breaking ([1]; P. rhodozyma 100 g/L, 48 h): 1043.17 µg/mL
drug-loading rate of astaxanthin ([2]; concentration of yeast 20 g/L): 3.45 mg/g
drug-loading rate of astaxanthin ([2]; concentration of yeast 50 g/L): 6.79 mg/g
drug-loading rate of astaxanthin ([2]; concentration of yeast 100 g/L): 10.42 mg/g
encapsulation rate of astaxanthin ([3]; concentration of yeast 20 g/L): 87.8%
encapsulation rate of astaxanthin ([3]; concentration of yeast 50 g/L): 78.69%
encapsulation rate of astaxanthin ([3]; concentration of yeast 100 g/L): 75.62%
Compound: CC1=C(/C=C/C(C)=C/C=C/C(C)=C/C=C/C=C(C)/C=C/C=C(C)/C=C/C2=C(C)C(=O)[C@@H](O)CC2(C)C)C(C)(C)C[C@H](O)C1=O [astaxanthin]
